Assay results from paper PMC9963121, “Development of Combretastatin A-4 Analogues as Potential Anticancer Agents with Improved Aqueous Solubility” (Molecules, 2023).

Columns and labels:
[1] = Compound stability in rat plasma, HPLC; assay type: in vitro ADME; conditions: 37 °C
Procedure: Blood was collected from SD rats (200–250 g, male and female, Animal Experimental Center of Yanbian University) into heparin tubes, and supernatant plasma was collected after centrifugation.
A certain amount of 9a and 12a1 were accurately weighed and mixed with rat plasma. After incubation at 37 ℃ for 0, 6, 12, 24 and 36 h, the plasma samples were treated with methanol and analyzed by HPLC to determine their stability in plasma.
A HITACHI Primaide HPLC liquid chromatography system was equipped and used for all analyses. Chromatographic separation was performed on a Welch Ultimate XB-C18 column (3.9 mm × 150 mm, 5 μm; Welch, China). The analytes were eluted using a gradient method with a flow rate of 1 mL/min. Mobile phase A was Ultra pure water, and mobile phase B was methanol according to the following gradient: (1) The gradient elution conditions of 9a: 0 to 8 min, 55% to 67% B; 8.1 to 15 min, 67% to 90% B; 15.1 to 25 min, 55% B. (2) The gradient elution conditions of 12a1: 0 to 9 min, 55% to 65% B; 9.1 to 12 min, 65% to 75% B; 12.1 to 15 min, 75% to 85% B; 15.1 to 20 min, 90% B; 20.1 to 30 min, 55% B. The injection volume was 3 μL. The column temperature was set at 40 °C. […]
1.6. Plasma stability assessment
Prepare plasma:blood was collected from SD rats (200-250g, male and female, Animal Experimental Center of Yanbian University) into heparin tubes, and supernatant plasma was collected after centrifugation.
A certain amount of 9a and 12a1 were accurately weighed and mixed with rat plasma.
After incubation at 37℃ for 0 h, 6 h, 12 h, 24 h and 36 h, the plasma samples were treated with methanol and analyzed by HPLC to determine their stability in plasma.
Analytical instrument and conditions:
A HITACHI Primaide HPLC liquid chromatography system equipped was used for all analyses. Chromatographic separation was performed on a Welch Ultimate XB-C18 column (3.9 mm × 150 mm, 5 μm; Welch, China). The analytes were eluted using a gradient method with a flow rate of 1 mL/min. Mobile phase A was Ultra pure water, and mobile phase B was methanol according to the following gradient: (1). The gradient elution conditions of 9a: 0 to 8 minutes, 55% to 67% B; 8.1 to 15 minutes, 67% to 90% B; 15.1 to 25 minutes, 55% B. (2). The gradient elution conditions of […]

[2] = tested on: BEL-7402 liver cancer cell; assay: MTT cell growth inhibition assay, BEL-7402 liver cancer cells; assay type: cell-based; conditions: Homo sapiens, mean ± SD of three experiments, read-out: IC50 BEL-7402 Hepatoma Cells
Text: (§1) Initially, we designed and synthesised seven compounds—9a and 12a1–12a6—and evaluated the anticancer activity and aqueous solubility. We evaluated the cytotoxic effects of these stilbene nitrile analogues against a panel of four human cancer cell lines (HCT-116, BEL-7402, MCF-7 and AGS) and two human non-cancerous normal cell lines (L-02 and MCF-10A), using CA-4 as a control. The compounds were screened for aqueous solubility in 0.01 M PBS using a high throughput UV method. […] It is possible that the size of the nitrogen heterocycle had little effect on the activity of these compounds. […] The aqueous solubility of all the compounds 12a1–12a6 was higher than that of 9a, particularly that of 12a1 and 12a2 containing piperazine rings. […] Of the six compounds with improved aqueous solubility, 12a1 had the best activity.
(§2) All human cell lines were used in this study. AGS gastric cancer cell, BEL-7402 liver cancer cell, HCT-116 colorectal cancer cell, L-02 normal liver cell, MCF-7 breast cancer cell, and MCF-10A normal breast cell were initially purchased from American Type Culture Collection (ATCC, Manassas, VA, USA). RPMI-1640 media, DMEM and FBS, were provided by Gibco Company. The cells were maintained in DMEM or RPMI-1640, supplemented with 10% FBS, 100 IU/mL penicillin and […] streptomycin, and at 37 °C in a humidified atmosphere containing 5% CO2.
(§3) The experiment was carried out according to the method of reference.

MCF-7 breast cancer cell = assay: MTT cell growth inhibition assay, MCF-7 breast cancer cells; assay type: cell-based; conditions: Homo sapiens, MCF7, mean ± SD of three experiments
Text: as §1, §2, §3

L-02 normal liver cell = assay: MTT cell growth inhibition assay, L-02 normal liver cells; assay type: cell-based; conditions: Homo sapiens, mean ± SD of three experiments
Text: as §1, §2, §3

[3] = Aqueous solubility in 0.01 M PBS, high throughput UV method; assay type: physicochemical; conditions: for Water solubility (in words): Figure 1; for solubility thermodynamic at 1.5 h: aqueous phosphate buffer, aqueous buffer, sodium phosphate buffer 0.01 M, pH 7.4, 22 ± 2 °C, mean ± SD
Text: as §1
The aqueous solubility was determined as a previously reported procedure. Put simply, a certain amount of powdered compound was placed in a 2 mL centrifuge tube and mixed with an appropriate volume of aqueous phosphate buffer (10 mM, pH 7.4) to make the whole system supersaturated. The mixtures were sonicated (KQ5200DE numerical control ultrasonic cleaner, Kunshan Ultrasonic Instrument Co., Ltd., SuZhou, China) for 20 min. After sonication, the mixture was allowed to equilibrate at RT (22 ± 2 °C) for 1.5 h with vortex shaking (1200 rpm). Then centrifuged at 3000 rpm for 15 min (1-14k, sigma, Darmstadt, Germany), the supernatant was filtered with a 0.22 µM filter membrane. And then, take 150 µL of filtrate and add it to 96-well UV plate with triplicate. Draw 150 μL of blank solution was added into plate as blank control. The 96-well UV plate prepared above was read on a Synergy HTX Multifunctional Microplate Reader (BioTek, Vermont, USA) at 294 nm. The absorbance of the sample was corrected according to the UV response of the sample and blank solution, and the corrected UV response values were used for solubility calculations by bringing into the standard curve of the compound. […]
1.5. Solubility Assessment
The aqueous solubility was determined as previously reported using the high throughput solubility screens procedure published by Bruno Bard et al [9. 10]. Put simply, a certain amount of powdered compound was placed in a 2 ml centrifuge tube and mixed with an appropriate volume of aqueous phosphate buffer (0.01 M, pH 7.4) to make the whole system supersaturated. The mixtures were sonicated (KQ5200DE numerical control ultrasonic cleaner, Kunshan Ultrasonic Instrument Co., Ltd., China) for 20 min. After sonication, the mixture was allowed to equilibrate at room temperature (22 ± 2°C) for 1.5 h with vortex shaking (1200 rpm). Then the centrifuge tube was put into the centrifuge (1-14k, sigma, Germany), centrifuged with 3000 rpm for 15 minutes, 0.22 µM filter membrane filtration supernatant, then take 150 µl filtrate and add it to 96-well UV plate, with three well for each compound. Draw 150 μL blank solution were added into 96 well-plate as blank control. The 96-well UV […]
plate prepared above was read on a SynergyHTX Multifunctional microplate reader (BioTek, USA) at 338 nm (compounds 12a-12d and 15-20) or 370 nm (compounds 9a-d). The absorbance of the sample was corrected according to the UV response of the sample and blank solution, and the corrected UV responses value were used for solubility calculations by bring into the standard curve of the compound. […]

[4] = tested on: MCF-10A normal breast cell; assay: MTT cell growth inhibition assay, MCF-10A normal breast cells; assay type: cell-based; conditions: Homo sapiens, mean ± SD of three experiments, read-out: IC50 MCF-10A Normal Breast Epithelial Cells
Text: as §1, §2, §3

[5] = tested on: HCT-116 colorectal cancer cell; assay: MTT cell growth inhibition assay, HCT-116 colorectal cancer cells; assay type: cell-based, human; conditions: for IC50: Homo sapiens, HCT-116, MTT, mean ± SD of three experiments
Text: as §1, §2, §3

AGS gastric cancer cell = assay: MTT cell growth inhibition assay, AGS gastric cancer cells; assay type: cell-based; conditions: Homo sapiens, mean ± SD of three experiments
Text: as §1, §2, §3

[6] = parameters: method as in earlier work; conditions: cited from earlier work
[7] = parameters: method as in PMID 12067983, PMID 12807934, PMID 14645433; conditions: clinical data, intravenous CA-4P; cited from earlier work
[8] = Configuration (cis/trans) stability; conditions: Figure 1; cis/trans olefin configuration
Text: This vascular disrupting activity causes the tumor tissue vascular collapse, cutting down the oxygen and nutrient supply to tumor cells, leading to tumor cell death.
(compound 2, Figure 1). Still, the methyl group is difficult to modify chemically. […] Lipinski proposed the theory of the “Rule of 5” in 1997 [19], which is used to evaluate the pharmacokinetic characteristics of small molecule drugs.

SMILES: COc1cc(/C(C#N)=C/c2ccc(N)cc2)cc(OC)c1OC [9a, (Z)-3-(4-aminophenyl)-2-(3,4,5-trimethoxyphenyl)acrylonitrile]
- Decrease of HPLC peak area in rat plasma ([1]; within 36 h, UV 294 nm): approximately 33%
- Plasma stability (in words) ([1]; rat plasma, 24 h): retained plasma stability over 24 h
- IC50 [2]: 140 ± 10 nM
- IC50 (MCF-7 breast cancer cell): 4820 ± 1570 nM
- IC50 (L-02 normal liver cell): 20700 ± 3390 nM
- Water solubility (in words) [3]: Poor water solubility
- solubility thermodynamic at 1.5 h [3]: 10.8 ± 0.7 µg/mL
- Aqueous solubility relative to CA-4 ([3]; ratio to CA-4): five times lower
- Improvement in aqueous solubility over compound 2 ([3]; ratio to compound 2): two-fold
- IC50 [4]: > 100000 nM
- IC50 [5]: 20 ± 10 nM
- Selectivity for HCT-116 cancer cells over L-02 normal cells ([5]; ratio of IC50 values L-02 / HCT-116): 1000 times
- Activity against HCT-116 relative to CA-4 ([5]; ratio to CA-4): eight times higher
- IC50 (AGS gastric cancer cell): 120 ± 10 nM

SMILES: COc1ccc(/C=C\c2cc(OC)c(OC)c(OC)c2)cc1O [CA-4, Combretastatin A-4]
- IC50 (MCF-7 breast cancer cell): 220 ± 90 nM
- IC50 (L-02 normal liver cell): 1100 ± 30 nM
- Water solubility (in words) [3]: Poor water solubility
- solubility thermodynamic at 1.5 h [3]: 57.7 µg/mL
- IC50 [5]: 160 nM
- IC50 (AGS gastric cancer cell): 3420 ± 30 nM
- Rat Plasma Protein Binding Rate [6]: 72.3 ± 6.9%

SMILES: COc1ccc(/C=C\c2cc(OC)c(OC)c(OC)c2)cc1OP(=O)([O-])[O-].[Na+].[Na+] [CA-4P, reference compound]
- half-life [7]: about 30 min
- Water solubility (in words) [3]: Good water solubility
- Configuration stability (in words) [8]: Configuration instability
- IC50 [5]: 590 ± 220 nM
